Measured values from the OPERA property sets (Mansouri et al. 2018).

Compound | logP
COc1nc(C)c(-c2ccncc2)cc1C#N | 2.41
CCC(CO)Nc1ncc(-c2ccncc2)cc1C#N (centres undefined) | 1.04
Cc1nc(NCCN)c(C#N)cc1-c1ccncc1 | 1.91
Cc1nc(N2CCNCC2)c(C#N)cc1-c1ccccc1 | 3.15
CCOc1ncc(-c2ccncc2)cc1C#N | 2.59
CC(O)COc1ncc(-c2ccncc2)cc1C#N (centres undefined) | 1.65

The next lines start with the values.

logP | Compound
4.06 | O=C(OCCCNc1ccc(-c2ccncc2)cn1)c1ccccc1
2.47 | CCC(=O)OCCNc1ccc(-c2ccncc2)cn1
2 | CC(=O)OCCNc1ccc(-c2ccncc2)cn1
2.03 | COCCCNc1ncc(-c2ccncc2)cc1C#N
2.48 | CC(=O)OCCCOc1ccc(-c2ccncc2)cn1
2.59 | CC(=O)OCCNc1ccc(-c2ccncc2)c(C)n1
1.92 | CC(=O)OCCOc1ccc(-c2ccncc2)cn1
1.93 | N#Cc1cc(-c2ccncc2)cnc1NCCCCO
